Reference: patent US10722501B2 (BAYER AKTIENGESELLSCHAFT, priority 2016, dated 2020)

Molecular target: T1, recombinant full-length human prolyl endopeptidase (PREP) (Homo sapiens, UniProt P48147)
T1 construct: To recombinant full-length human prolyl endopeptidase (PREP, R&D-Systems, 4308-SE); purchased R&D-Systems 4308-SE
T1 sequence (P48147 1-710): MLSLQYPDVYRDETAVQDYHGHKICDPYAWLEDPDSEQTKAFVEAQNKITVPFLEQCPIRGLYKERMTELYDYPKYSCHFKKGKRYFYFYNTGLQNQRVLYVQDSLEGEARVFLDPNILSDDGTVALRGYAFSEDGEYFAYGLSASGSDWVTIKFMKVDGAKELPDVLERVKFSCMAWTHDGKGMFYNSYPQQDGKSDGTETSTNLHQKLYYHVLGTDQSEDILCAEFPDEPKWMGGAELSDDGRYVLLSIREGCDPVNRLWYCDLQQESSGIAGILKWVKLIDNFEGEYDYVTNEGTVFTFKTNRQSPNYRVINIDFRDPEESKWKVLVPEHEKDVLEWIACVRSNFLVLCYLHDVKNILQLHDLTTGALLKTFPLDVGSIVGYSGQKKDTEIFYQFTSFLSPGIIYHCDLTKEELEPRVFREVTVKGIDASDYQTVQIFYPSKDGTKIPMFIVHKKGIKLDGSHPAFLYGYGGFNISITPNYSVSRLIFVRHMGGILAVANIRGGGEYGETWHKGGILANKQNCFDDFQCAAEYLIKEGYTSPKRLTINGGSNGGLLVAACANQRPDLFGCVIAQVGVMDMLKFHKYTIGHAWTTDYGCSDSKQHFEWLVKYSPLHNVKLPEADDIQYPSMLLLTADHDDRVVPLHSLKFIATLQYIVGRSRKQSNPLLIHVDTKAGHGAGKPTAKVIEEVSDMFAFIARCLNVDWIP
Experiment: Biochemical human prolyl endopeptidase (PREP) assay with fluorescently labelled substrate
Settings: substrate Z-Gly-Pro-AMC 50 μM, 32° C., 60 min; some as mean values from multiple independent determinations
Procedure, shortened: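 Initial rates of fluorescence increase from 50 μM Z-Gly-Pro-AMC cleavage (ex 360/em 465 nm, 60 min, 32° C) give percent PREP activity versus no-compound control, and IC50 is interpolated. Enzyme used at 0.4 nM (final, example) in Tris pH 7.5 with EDTA, GSH, BSA and Brij-35; compounds span 1 nM to 30 μM.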

Row | Structure (SMILES) | IC50
1 | O=C([C@@H]1CCCc2nn(Cc3cc(C(F)(F)F)nc4ccccc34)c(=O)n21)N1CC[C@H](F)C1 [Example 539, (5S)-5-{[(3S)-3-Fluoropyrrolidin-1-yl]carbonyl}-2-{[2-(trifluoromethyl)quinolin-4-yl]methyl}-5,6,7,8-tetrahydro[1,2,4]triazolo[4,3-a]pyridin-3(2H)-one] | 0.85 nM
2 | O=C([C@@H]1CCCc2nn(Cc3nc(C(F)(F)F)no3)c(=O)n21)N1CC(F)C1 [Example 540, (5S)-5-[(3-Fluoroazetidin-1-yl)carbonyl]-2-{[3-(trifluoromethyl)-1,2,4-oxadiazol-5-yl]methyl}-5,6,7,8-tetrahydro[1,2,4]triazolo[4,3-a]pyridin-3(2H)-one] | 27 nM
3 | O=C([C@@H]1CCCc2nn(Cc3nnc(C(F)(F)F)o3)c(=O)n21)N1CCC(F)(F)C1 [Example 541, (5S)-5-[(3,3-Difluoropyrrolidin-1-yl)carbonyl]-2-{[5-(trifluoromethyl)-1,3,4-oxadiazol-2-yl]methyl}-5,6,7,8-tetrahydro[1,2,4]triazolo[4,3-a]pyridin-3(2H)-one] | 63 nM
4 | O=C([C@@H]1CCCc2nn(Cc3nnc(C(F)(F)F)o3)c(=O)n21)N1CC(F)C1 [Example 542, (5S)-5-[(3-Fluoroazetidin-1-yl)carbonyl]-2-{[5-(trifluoromethyl)-1,3,4-oxadiazol-2-yl]methyl}-5,6,7,8-tetrahydro[1,2,4]triazolo[4,3-a]pyridin-3(2H)-one] | 94 nM
5 | O=C([C@@H]1CCCc2nn(Cc3nnc(C(F)(F)F)o3)c(=O)n21)N1C[C@@H](F)[C@@H](F)C1 [Example 543, (5S)-5-{[(3R,4S)-3,4-Difluoropyrrolidin-1-yl]carbonyl}-2-{[5-(trifluoromethyl)-1,3,4-oxadiazol-2-yl]methyl}-5,6,7,8-tetrahydro[1,2,4]triazolo[4,3-a]pyridin-3(2H)-one] | 33.5 nM
6 | O=C([C@@H]1CCCc2nn(Cc3nnc(C(F)(F)F)o3)c(=O)n21)N1CC[C@H](F)C1 [Example 544, (5S)-5-{[(3S)-3-Fluoropyrrolidin-1-yl]carbonyl}-2-{[5-(trifluoromethyl)-1,3,4-oxadiazol-2-yl]methyl}-5,6,7,8-tetrahydro[1,2,4]triazolo[4,3-a]pyridin-3(2H)-one] | 4.4 nM
7 | O=C([C@@H]1CCCc2nn(Cc3cnc(C(F)(F)F)c(Cl)c3)c(=O)n21)N1CCCC1 [Example 545, (5S)-2-{[5-Chloro-6-(trifluoromethyl)pyridin-3-yl]methyl}-5-(pyrrolidin-1-ylcarbonyl)-5,6,7,8-tetrahydro[1,2,4]triazolo[4,3-a]pyridin-3(2H)-one] | 0.67 nM

Other lines, results leading:

Row | IC50 | Structure (SMILES)
8 | 9.6 nM | O=C([C@@H]1CCCc2nn(Cc3ccc(F)nc3)c(=O)n21)N1CCC(F)(F)C1 [Example 536, (5S)-5-[(3,3-Difluoropyrrolidin-1-yl)carbonyl]-2-[(6-fluoropyridin-3-yl)methyl]-5,6,7,8-tetrahydro[1,2,4]triazolo[4,3-a]pyridin-3(2H)-one]
9 | 8.8 nM | O=C([C@@H]1CCCc2nn(Cc3ccc(F)nc3)c(=O)n21)N1CC(F)(F)C1 [Example 537, (5S)-5-[(3,3-Difluoroazetidin-1-yl)carbonyl]-2-[(6-fluoropyridin-3-yl)methyl]-5,6,7,8-tetrahydro[1,2,4]triazolo[4,3-a]pyridin-3(2H)-one]
10 | 0.82 nM | COc1ccc(Cn2nc3n(c2=O)[C@H](C(=O)N2CCCC2)CCC3)cn1 [Example 538, (5S)-2-[(6-Methoxypyridin-3-yl)methyl]-5-(pyrrolidin-1-ylcarbonyl)-5,6,7,8-tetrahydro[1,2,4]triazolo[4,3-a]pyridin-3(2H)-one]
11 | 0.57 nM | O=C([C@@H]1CCCc2nn(Cc3ccc(F)cc3)c(=O)n21)N1CC(F)C1 [Example 546, (5S)-5-[(3-Fluoroazetidin-1-yl)carbonyl]-2-(4-fluorobenzyl)-5,6,7,8-tetrahydro[1,2,4]triazolo[4,3-a]pyridin-3(2H)-one]
12 | 36 nM | O=C([C@@H]1CCCc2nn(Cc3ncc(Cl)cc3F)c(=O)n21)N1CC(F)C(F)C1 (stereo partly drawn) [Example 549]
